Data from patent US8927500B2, “Peptidomimetic macrocycles” (Aileron Therapeutics, Inc., priority 2012, dated 2015).
Where a SMILES comes first, the peptide text is derived from it. Bridges are numbered along the chain shown (N, C = ends). [ ]: non-standard residue; d: D form. R8 = C=CCCCCCC[C@@](C)(N)C(=O)O; Chg = N[C@H](C(=O)O)C1CCCCC1; hLeu = CC(C)CC[C@H](N)C(=O)O; S5 = C=CCCC[C@](C)(N)C(=O)O; Nle = CCCC[C@H](N)C(=O)O

What was measured:
MDM2 = MDM2 (Homo sapiens, UniProt Q00987); assay: Competitive fluorescence polarization assay for MDM2; format: binding; conditions: competitive FP assay, MDM2; for IC50: read-out: IC50 (MDM2); for Ki: read-out: Ki (MDM2)
SJSA-1 cells = assay: Cell lysis by peptidomimetic macrocycles (LDH release); format: cell-based; conditions: 1 h at 37C
MDMX = biological target: T1, MDMX (Homo sapiens, UniProt O15151); assay: Competitive fluorescence polarization assay for MDMX; format: binding; conditions: competitive FP assay; for IC50: read-out: IC50 (MDMX); for Ki: read-out: Ki (MDMX)
T1 sequence (O15151 1-125): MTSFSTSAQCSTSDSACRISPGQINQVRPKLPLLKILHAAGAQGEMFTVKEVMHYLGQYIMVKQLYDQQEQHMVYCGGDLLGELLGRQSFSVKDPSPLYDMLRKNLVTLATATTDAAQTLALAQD

MDM2, sequence (Q00987 1-125): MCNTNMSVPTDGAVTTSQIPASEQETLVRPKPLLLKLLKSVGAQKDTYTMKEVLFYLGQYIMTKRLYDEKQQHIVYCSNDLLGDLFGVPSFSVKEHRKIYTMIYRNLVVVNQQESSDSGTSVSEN

| IC50 (MDM2) [nM] | Ki (MDM2) [nM] | IC50 (MDMX) [nM] | Ki (MDMX) [nM] | Compound | 6.25 uM % Lysed cells (1 h LDH) (SJSA-1 cells) [%] | 25 uM % Lysed cells (1 h LDH) (SJSA-1 cells) [%] | 50 uM % Lysed cells (1 h LDH) (SJSA-1 cells) [%] |
| --- | --- | --- | --- | --- | --- | --- | --- |
| < 10 | < 10 | 100 to 1000 | 10 to 100 | CC(=O)N[C@@H](CC(C)C)C(=O)N[C@H](C(=O)N[C@@H](Cc1ccccc1)C(=O)N[C@]1(C)CCCCCCC=CCCC[C@@](C)(C(=O)N[C@@H](C)C(=O)N[C@@H](C)C(=O)NC(C)(C)C(=O)N[C@@H](C)C(N)=O)NC(=O)[C@H](CC(C)C)NC(=O)[C@H](CCC(N)=O)NC(=O)[C@H](C)NC(=O)[C@H](Cc2c[nH]c3ccccc23)NC(=O)[C@H](Cc2ccc(O)cc2)NC(=O)[C@H](C)NC1=O)[C@@H](C)O (single isomer, unassigned) [compound 232] | 6 | 5 | 5 |
| < 10 | < 10 | 10 to 100 | < 10 | CC[C@H](C)[C@H](NC(=O)[C@H](C)NC(=O)[C@H](C)NC(=O)[C@]1(C)CCCC=CCCCCCC[C@@](C)(NC(=O)[C@H](Cc2ccccc2)NC(=O)[C@@H](NC(=O)[C@H](CC(C)C)NC(C)=O)[C@@H](C)O)C(=O)N[C@@H](CCC(=O)O)C(=O)N[C@@H](Cc2ccc(C(=O)O)cc2)C(=O)N[C@@H](Cc2c[nH]c3cc(Cl)ccc23)C(=O)N[C@@H](C)C(=O)N[C@@H](CCC(N)=O)C(=O)N[C@@H](CC2CCC2)C(=O)N1)C(=O)N[C@H](C)C(N)=O (single isomer, unassigned) [compound 336] | 0 | 0 | 0 |
| 100 to 1000 | 10 to 100 | 100 to 1000 | 10 to 100 | CCCC[C@H](NC(=O)[C@H](C)NC(=O)[C@H](CO)NC(=O)[C@]1(C)CCCC=CCCCCCC[C@@](C)(NC(=O)[C@H](Cc2ccccc2)NC(=O)[C@@H](NC(=O)[C@H](CC(C)C)NC(C)=O)[C@@H](C)O)C(=O)N[C@@H](C)C(=O)N[C@@H](Cc2ccc(O)cc2)C(=O)N[C@@H](Cc2c[nH]c3ccccc23)C(=O)N[C@@H](C)C(=O)N[C@@H](CCC(N)=O)C(=O)N[C@@H](CC(C)C)C(=O)N1)C(N)=O [compound 3] (Ac-LTF[R8]AYWAQL[S5]SA[Nle]-NH2; staple 4-11) | 1 | 1 | 3 |
| 100 to 1000 | 10 to 100 | 100 to 1000 | 10 to 100 | CC(=O)N[C@@H](CC(C)C)C(=O)N[C@H](C(=O)N[C@@H](Cc1ccccc1)C(=O)N[C@]1(C)CCCCCCC=CCCC[C@@](C)(C(=O)N[C@@H](CO)C(=O)N[C@@H](C)C(=O)N[C@@H](CCC(C)C)C(N)=O)NC(=O)[C@H](CC(C)C)NC(=O)[C@H](CCC(N)=O)NC(=O)[C@H](C)NC(=O)[C@H](Cc2c[nH]c3ccccc23)NC(=O)[C@H](Cc2ccc(O)cc2)NC(=O)[C@H](C)NC1=O)[C@@H](C)O [compound 6] (Ac-LTF[R8]AYWAQL[S5]SA[hLeu]-NH2; staple 4-11) | 1 | 1 | 1 |
| 100 to 1000 | 10 to 100 | 100 to 1000 | 10 to 100 | CC(=O)N[C@@H](CC(C)C)C(=O)N[C@H](C(=O)N[C@@H](Cc1ccccc1)C(=O)N[C@]1(C)CCCCCCC=CCCC[C@@](C)(C(=O)N[C@@H](CO)C(=O)N[C@@H](C)C(=O)N[C@H](C(N)=O)C2CCCCC2)NC(=O)[C@H](CC(C)C)NC(=O)[C@H](CCC(N)=O)NC(=O)[C@H](C)NC(=O)[C@H](Cc2c[nH]c3ccccc23)NC(=O)[C@H](Cc2ccc(O)cc2)NC(=O)[C@H](C)NC1=O)[C@@H](C)O [compound 9] (Ac-LTF[R8]AYWAQL[S5]SA[Chg]-NH2; staple 4-11) | −3 | 0 | 2 |
